Patent publication US9968557B1, “Method of preparing modified multilayered microstructures with enhanced oral bioavailability” (Florida A&M University, priority 2011, dated 2018)
Converted amounts (≈) assume the structure as drawn.

Tests used:
[1] = Solubility of DIM-P in buffers of different pH, assayed by HPLC; format: physicochemical
Method: (§1) Solubility measurements were assayed by HPLC. Five milligrams of DIM-C-pPhC6H5 (“DIM-P”) was suspended in 1 ml of different buffers having pH 2.0, 4.0, 5.0, 6.0, 7.0 and 8.0 in a centrifuge tubes. The tubes were placed at 37±0.1° C. and kept for shaking at 1500 rpm for 24 hours. The suspensions were centrifuged, and supernatant were filtered using 0.1 μm filters prior to HPLC analysis. Partition co-efficient of DIM-P was measured in an octanol-water system. Octanol and water were mixed in 1:1 concentration and 3 mg of DIM-P was added to 2 mL of mixture followed by vigorous shaking for 5 minutes. The mixture was separated by centrifugation and samples were collected and filtered through 0.1 μm filters prior to HPLC analysis.

[2] = Partition co-efficient in an octanol-water system; format: physicochemical; conditions: octanol-water 1:1
Method: as §1

Which solubility ([1]; at any pH) does the source give for `c1ccc(-c2ccc(C(c3c[nH]c4ccccc34)c3c[nH]c4ccccc34)cc2)cc1` [DIM-P, DIM-C-pPhC6H5] here?
Its solubility is “less than 1 μg/mL”.

What about the solubility ([1]; pH 2.0, 37°C, 24 hours shaking) of the same compound?
The solubility was 0.18 ± 0.003 µg/mL (≈ 0.452 µM).

What about the Maximum solubility ([1]; pH 8.0, 37°C, 24 hours shaking) of the same compound?
Its Maximum solubility is 0.73 ± 0.09 µg/mL.

And the sequence of solubility ([1]; rank order by pH)?
The sequence of solubility was “pH 8.0>6.0>4.0>2.0”.

And the log p value [2]?
The log p value was 6.97±0.12.
